pEC50, pIC50: −log10 of the molar value. Where two headings read alike, the source gives them in different places.
Experiments:
phospho-akt (Thr308) = phospho-akt (Thr308) MSD ELISA in PC-3 cells; type: cell-based; conditions: Homo sapiens, PC-3, 2 h, PC-3 cells, 2 hours, no serum; for pEC50: read-out: Inhibition of P308 Akt in cells using MSD EC50; for EC50: read-out: Reduction of Cellular Levels of Akt p308 By MSD ELISA (EC50 μM)
How it was run: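 PC-3 cells plated overnight in 10% FBS medium, then treated with three-fold serial compound dilutions in serum-free medium; DMSO-only wells as high control. Lysates captured on BSA-blocked MSD plates overnight at 4 degrees, detection antibody 1 hr RT, electrochemiluminescence read on MSD reader.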

Phospho-T308 Akt = Phospho-T308 Akt detection using immunoblot (western blot) in PC-3 cells; type: cell-based
How it was run: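 PC-3 prostate cells, cultured overnight in F12K plus 10% FBS, were treated for 2 h at 37 °C in serum-free medium with compound A (1000× DMSO dilutions). Lysate protein was immunoblotted with anti-phospho-Akt Thr308. Bands were quantified by background-subtracted densitometry, giving EC50 by non-linear regression and percent decrease at 2 μM and 5 μM.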

[1] = tested on: phospho-akt (thr308), phospho-PKC delta (thr505), phospho-PKC (thr538), phospho-PKC zeta (thr410); assay: Phospho-PKC detection using immunoblot in PC-3 cells; type: cell-based; conditions: FIG. 2; at 2 hours and 18 hours
Experimental: The Phospho-PKC Detection was performed using immunoblot analysis as follows. The cell activity of test compounds, were assessed using immunoblot analysis for phospho-akt (thr308), phospho-PKC delta (thr505), phospho-PKC (thr538) and phospho-PKC zeta (thr410).
PC-3 prostate cells were plated in a 100 mm tissue culture dish in F12K media (Invitrogen, Carlsbad, Calif.) plus 10% FBS (Invitrogen) and placed in incubator overnight. The stocks of test compounds were a 50 mM solution in DMSO. For some test compounds a 5 mM solution was made in DMSO then directly diluted (1 μM and 5 μM final concentration) into fresh media with no serum. For other test compounds the 50 mM stock was directly diluted (10 μM and 30 μM final concentrations) into fresh media with no serum. For the control, DMSO was added to media with no serum at a final concentration of 0.1%. Cells were incubated with compound for 2 hrs or 18 hrs at 37° C. Cells were harvested and washed in PBS and subjected to centrifugation at 3,300 rpm for 5 minutes. The cell pellet was lysed in 150 μl Pierce (Rockford, Ill.) M-PER lysis buffer plus protease inhibitors and phosphatase inhibitors (Sigma, St. Louis, Mo.) for 30 minutes on ice followed by centrifugation at 13,000 rpm for 5 minutes. The protein content of the supernatant was assayed using DC Protein Assay (BioRad, Hercules, Calif.). […]

phosphorylated PDK1 = phosphorylated PDK1 (Homo sapiens (Human), UniProt O15530); assay: PDK1 kinase assay (coupled PDK1/AKT/FAM-crosstide, IMAP); type: biochemical; conditions: 0.5 nM phosphorylated PDK1, 24 μM ATP; read-out: Inhibition of phospo-PDK1 in vitro IC50
dephosphorylated PDK1 = dephosphorylated PDK1 (Homo sapiens (Human), UniProt O15530); assay: as above; type: biochemical; conditions: 25 nM un-phosphorylated PDK1, 24 μM ATP; read-out: Inhibition of dephospo-PDK1 in vitro IC50
How it was run: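 Coupled cascade using 25 nM dephosphorylated PDK1 (aa 51–360, lambda-phosphatase treated, MS-verified), 30 nM unphosphorylated GST-AKT2 (aa 140–467)-PIFtide and 100 nM FAM-crosstide in Tris pH 7.2, 10 mM MgCl2, 1 mM DTT. ATP was 24 μM, with 30 min at 25 °C. Product was read by IMAP fluorescence polarization, and ΔmP against concentration was fitted with a 4-parameter model.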

full-length PDK1 = full-length PDK1 (Homo sapiens (Human), UniProt O15530); assay: PDK phosphorylation of AKT and PKC-PIFtide in presence of PIP3 vesicles; type: biochemical; conditions: substrates PKC-PIFtide vs AKT2
Experimental: PDK phosphorylation of two different substrates, AKT and PKC-PIFtide, was measured in presence of pre-formed phophoinositol lipid PIP3 vesicles. 5 nM full-length PDK1 and was incubated with 100 nM substrate (unphosphorylated, full-length AKT2 or PKC-PIFtide, Invitrogen cat#P2925) in presence of test compound or DMSO at room temperature for 3 hours. Final buffer conditions were 10 mM Tris pH 7.5 buffer containing 10 mM MgCl2, 0.002% Triton X-100, 1 mM DTT, 0.2 mg/ml BSA, 10 uM PtdIns(3,4,5)P3 (Matreya, Inc), 100 uM DOPC:DOPS (Avanti Polar Lipids), and 0.5 uCi γ^33P-ATP (3000 Ci/mmol, Perkin-Elmer.)
Kinase reactions were stopped with addition of 50 uM non-labelled ATP and 5 mM EDTA, then acidified with 0.5% final concentration phosphoric acid. Labeled proteins were collected in Whatman P81 filter plates and washed with three 150 ul volumes of 0.5% phosphoric acid.
Lipid vesicles were pre-formed as follows. 15 mg (3 ampules) DOPC:DOPS was resuspended in 898 ul 10 mM HEPES pH 7.4. 1 mg PIP3 was resuspended in 1000 ul 10 mM HEPES pH 7.4. 964 ul of PIP3 was mixed with 800 ul DOPC:DOPS and diluted with 18.2 ml 10 mM HEPES pH 7.4 and mixed by vortexing. The lipid mixture was subjected to 5 cycles of freeze/thaw using liquid nitrogen and a 50° C. water bath. Aliquot of lipids were flash frozen and stored at −20° C.

Sequence of phosphorylated PDK1 (O15530 51-360): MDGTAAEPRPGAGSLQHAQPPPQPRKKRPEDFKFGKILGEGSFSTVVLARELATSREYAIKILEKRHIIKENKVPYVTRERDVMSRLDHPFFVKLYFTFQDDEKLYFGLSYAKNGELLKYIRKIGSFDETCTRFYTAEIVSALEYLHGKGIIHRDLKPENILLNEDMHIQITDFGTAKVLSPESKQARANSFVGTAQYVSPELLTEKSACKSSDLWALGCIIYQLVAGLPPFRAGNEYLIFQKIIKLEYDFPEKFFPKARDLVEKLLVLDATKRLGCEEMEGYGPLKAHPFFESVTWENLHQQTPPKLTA
Sequence of dephosphorylated PDK1 (O15530 51-360): as above
Sequence of full-length PDK1 (O15530 whole entry): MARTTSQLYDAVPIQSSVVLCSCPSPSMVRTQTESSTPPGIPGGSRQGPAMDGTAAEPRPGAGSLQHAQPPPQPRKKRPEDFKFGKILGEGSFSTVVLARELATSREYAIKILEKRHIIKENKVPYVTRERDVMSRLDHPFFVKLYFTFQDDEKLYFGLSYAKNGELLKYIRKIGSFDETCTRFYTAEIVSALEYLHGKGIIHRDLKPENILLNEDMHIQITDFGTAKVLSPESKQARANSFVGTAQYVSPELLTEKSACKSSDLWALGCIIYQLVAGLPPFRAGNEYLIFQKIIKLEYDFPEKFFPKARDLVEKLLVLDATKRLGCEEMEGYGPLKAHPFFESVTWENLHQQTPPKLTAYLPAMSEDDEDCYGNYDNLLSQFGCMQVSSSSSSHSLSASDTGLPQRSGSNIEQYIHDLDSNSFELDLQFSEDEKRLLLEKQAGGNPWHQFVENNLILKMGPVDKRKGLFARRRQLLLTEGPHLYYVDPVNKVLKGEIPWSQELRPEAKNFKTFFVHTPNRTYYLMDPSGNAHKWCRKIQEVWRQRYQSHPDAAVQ

## O=C(N[C@@H](COc1ccc2[nH]c(=O)[nH]c2c1)c1ccccc1)c1cccn(Cc2ccc(F)c(F)c2)c1=O [Cpd 144]
phospho-akt (Thr308)
  pEC50: > 6.00
  EC50: < 1 µM
Phospho-T308 Akt; 2 hour incubation, concentration not given in Table 2
  Reduction of Cellular Levels of Akt p308 By Western: bbb (inhibition of more than 75%)
Phospho-T308 Akt; Homo sapiens, at 2 μM, read-out: Percent Inhibition of phospho-Akt (308) By Western
  inhibition at 2 µM: > 75%
[1]
  inhibition of PDK1 mediated phosphorylation of Akt relative to PKC isoforms: selective inhibition of PDK1 mediated phosphorylation of Akt relative to PDK1 mediated phosphorylation of PKC isoforms

## O=C(NCc1ccc(-c2c[nH]c3ncccc23)s1)c1cccn(Cc2ccc(F)c(F)c2)c1=O [Cpd 2]
Phosphorylated PDK1
  pIC50: > 6.30
Dephosphorylated PDK1
  pIC50: > 6.30
phospho-akt (Thr308)
  pEC50: 5.30 to 6.00
  EC50: 1 to 5 µM
full-length PDK1
  Ratio of PIP3 IC50 with PKCtide to PIP3 IC50 with AKT: 36.7

## COc1ccnc(NCCC#CCNC(=O)c2cccn(Cc3ccc(F)c(F)c3)c2=O)n1 [Cpd 109]
Phosphorylated PDK1
  pIC50: > 6.30
Dephosphorylated PDK1
  pIC50: > 6.30
full-length PDK1
  Ratio of PIP3 IC50 with PKCtide to PIP3 IC50 with AKT: 51.8

## COc1ccnc(NCCC#CCCNC(=O)c2cccn(Cc3cccc(Cl)c3)c2=O)n1 [Cpd 102]
Phosphorylated PDK1
  pIC50: 5.00 to 6.30
Dephosphorylated PDK1
  pIC50: > 6.30
full-length PDK1
  Ratio of PIP3 IC50 with PKCtide to PIP3 IC50 with AKT: 19.1
